Laboratory results published in ChEMBL document CHEMBL5512664, “Emerging and Re-emerging Warheads for Targeted Covalent Inhibitors: An Update” (J Med Chem, 2024).
pEC50, pIC50, pKi: −log10 of the molar value.

How the values were obtained:
[1] = target: T1, Peptidyl-prolyl cis-trans isomerase E (Homo sapiens, UniProt Q9UNP9); assay: Inhibition of CypE (unknown origin) assessed as apparent inhibition constant incubated for 24 hrs by Competition anisotropy binding assay; conditions: read-out: Ki(app)
[2] = target: T1, Peptidyl-prolyl cis-trans isomerase E; assay: Inhibition of CypE (unknown origin) expressed in Escherichia coli BL21(DE3) by FLIPR based Chymotrypsin coupled prolyl-isomerase assay
[3] = target: Signal peptidase I (Escherichia coli K-12, UniProt P00803); assay: Binding affinity to Escherichia coli type I signal peptidase LepB assessed as inhibition constant
[4] = target: Signal peptidase I (Escherichia coli K-12) (UniProt P00803); assay: Irreversible inhibition of Escherichia coli type I signal peptidase LepB assessed as inactivation rate constant (Kinact)
[5] = target: Signal peptidase I (Escherichia coli K-12) (UniProt P00803); assay: Inhibition of Escherichia coli type I signal peptidase LepB assessed as reaction rate Kinact/Ki ratio
[6] = target: Replicase polyprotein 1ab (Severe acute respiratory syndrome coronavirus 2, UniProt P0DTD1); assay: Inhibition of SARS-CoV-2 Main protease (Mpro) by FRET assay
[7] = Inhibition of staphylococcus aureus Sortase A assessed as fluorescence polarization using reporter peptide W7-F incubated for 30 mins by competition assay
[8] = GSH reactivity in PBS buffer at pH 7.5 assessed as half life at 500 uM by LC-MS analysis; assay type: ADME
[9] = Stability of the compound in pH 7.5 PBS assessed as hydrolysis by measuring half life at 500 uM by LC-MS analysis; assay type: physicochemical; conditions: PBS pH 7.5, pH 7.5
[10] = target: Eukaryotic translation initiation factor 4E (Homo sapiens) (UniProt P06730); assay: Inhibition of eIF4E (unknown origin) assessed as inactivation rate constant (Kinact)
[11] = target: Eukaryotic translation initiation factor 4E (Homo sapiens) (UniProt P06730); assay: Inhibition of eIF4E (unknown origin) assessed as reaction rate Kinact/Ki ratio
[12] = target: Induced myeloid leukemia cell differentiation protein Mcl-1 (Homo sapiens, UniProt Q07820); assay: Irreversible inhibition of MCL-1 (unknown origin) measured after 8 hrs
[13] = Metabolic stability in human liver microsomes assessed as half life; assay type: ADME, Microsome
[14] = Metabolic stability in human hepatocytes assessed as half life; assay type: ADME, cell-based, Hepatocyte
[15] = Stability of the compound in human plasma assessed as half life; assay type: ADME, cell-free
[16] = target: Pyruvate kinase PKLR (Homo sapiens, UniProt P30613); assay: Allosteric activation at human liver pyruvate kinase
Chain of Pyruvate kinase PKLR (P30613 whole entry): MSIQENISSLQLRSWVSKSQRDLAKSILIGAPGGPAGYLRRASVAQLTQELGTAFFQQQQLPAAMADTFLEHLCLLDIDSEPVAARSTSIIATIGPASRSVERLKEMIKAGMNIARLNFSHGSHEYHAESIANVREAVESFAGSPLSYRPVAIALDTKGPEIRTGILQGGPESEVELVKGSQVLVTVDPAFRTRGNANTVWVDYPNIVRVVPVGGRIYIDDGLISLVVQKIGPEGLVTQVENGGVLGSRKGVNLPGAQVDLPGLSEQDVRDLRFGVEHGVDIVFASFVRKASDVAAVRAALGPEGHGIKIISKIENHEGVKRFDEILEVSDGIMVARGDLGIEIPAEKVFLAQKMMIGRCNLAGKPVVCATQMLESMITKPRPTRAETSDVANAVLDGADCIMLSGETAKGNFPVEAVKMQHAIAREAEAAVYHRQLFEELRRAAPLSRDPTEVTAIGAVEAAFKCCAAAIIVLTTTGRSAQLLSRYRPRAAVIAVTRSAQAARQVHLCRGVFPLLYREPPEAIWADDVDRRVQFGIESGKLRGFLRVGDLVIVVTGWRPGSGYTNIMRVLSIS

Chain of Eukaryotic translation initiation factor 4E (Homo sapiens) (P06730 whole entry): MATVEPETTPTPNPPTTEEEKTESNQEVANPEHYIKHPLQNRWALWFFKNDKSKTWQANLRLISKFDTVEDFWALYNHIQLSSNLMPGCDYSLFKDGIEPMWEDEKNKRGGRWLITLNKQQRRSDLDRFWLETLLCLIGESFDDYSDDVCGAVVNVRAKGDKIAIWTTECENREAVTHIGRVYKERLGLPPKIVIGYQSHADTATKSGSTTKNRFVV
Chain of Signal peptidase I (Escherichia coli K-12) (P00803 whole entry): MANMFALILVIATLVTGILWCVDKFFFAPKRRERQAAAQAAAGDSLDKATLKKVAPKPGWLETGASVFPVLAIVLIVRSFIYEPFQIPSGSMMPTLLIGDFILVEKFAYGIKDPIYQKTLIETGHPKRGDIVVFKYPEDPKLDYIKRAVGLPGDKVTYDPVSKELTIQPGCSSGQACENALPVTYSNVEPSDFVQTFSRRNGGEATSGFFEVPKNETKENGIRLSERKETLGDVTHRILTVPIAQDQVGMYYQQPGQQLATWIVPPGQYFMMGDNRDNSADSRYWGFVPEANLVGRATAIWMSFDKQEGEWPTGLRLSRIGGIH
T1 sequence (Q9UNP9 whole entry): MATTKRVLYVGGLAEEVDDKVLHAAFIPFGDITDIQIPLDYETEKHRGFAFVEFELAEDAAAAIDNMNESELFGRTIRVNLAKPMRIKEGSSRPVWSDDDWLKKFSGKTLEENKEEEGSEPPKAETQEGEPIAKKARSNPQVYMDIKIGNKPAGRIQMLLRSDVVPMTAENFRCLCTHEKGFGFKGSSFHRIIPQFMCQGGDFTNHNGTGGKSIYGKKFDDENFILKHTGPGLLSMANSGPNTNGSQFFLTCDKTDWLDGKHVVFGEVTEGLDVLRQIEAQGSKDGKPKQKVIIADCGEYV
Chain of Induced myeloid leukemia cell differentiation protein Mcl-1 (Q07820 whole entry): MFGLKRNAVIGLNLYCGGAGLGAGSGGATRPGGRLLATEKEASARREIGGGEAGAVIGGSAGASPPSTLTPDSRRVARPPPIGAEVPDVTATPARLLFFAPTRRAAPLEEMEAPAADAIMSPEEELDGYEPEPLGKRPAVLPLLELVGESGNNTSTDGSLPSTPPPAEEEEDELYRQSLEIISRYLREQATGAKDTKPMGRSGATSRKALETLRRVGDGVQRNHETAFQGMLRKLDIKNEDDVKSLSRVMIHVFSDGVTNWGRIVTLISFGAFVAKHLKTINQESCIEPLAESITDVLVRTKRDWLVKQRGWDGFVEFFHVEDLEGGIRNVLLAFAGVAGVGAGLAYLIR
Chain of Signal peptidase I (P00803 whole entry): as the sequence (P00803 whole entry) above

NCCOCCNC(=O)[C@@H]1CCNC(=O)/C=C/C(=O)N2CCC[C@](Cc3ccccc3)(C2)C(=O)N[C@@H](Cc2ccc(-c3ccccc3)cc2)C(=O)NCc2ccccc2CC(=O)N1
pKi [1]: 7.14 | pIC50 [2]: 7.89

Cc1nc(-c2ccc(C(C)(C)C)cc2)ncc1C(=O)N[C@@H](CCN)C(=O)N(C)[C@@H]1C(=O)N[C@@H](C)C(=O)N[C@H](C(=O)NCC#N)Cc2ccc(OCCN)c(c2)-c2cc1ccc2OCCN
pKi [3]: 9.36 | Kinact [4]: 7 10^-4/s | Ratio [5]: 1.6 10^6/M/s

O=C[C@H](CC1CCNC1=O)NC(=O)[C@H](Cc1cccc(F)c1)NC(=O)c1cc2ccccc2[nH]1 (stereo partly specified)
pIC50 [6]: 7.40

O=Cc1ccccc1NCc1ccccc1B(O)O
pIC50 [7]: 5.89

CNc1nc2ccc(N(Cc3ccnc(Cl)c3)S(=O)(=O)c3cccc(S(=O)(=O)F)c3)cc2c(=O)[nH]1
half-life at 500 µM [8]: 2.7 min | half-life at 500 µM [9]: 30 min | Kinact [10]: 2 10^-2/s | Ratio [11]: 5.5 10^3/M/s

C#Cc1ccc(OCc2nn(C)c(C)c2-c2cccc3c(CCCOc4cccc5ccccc45)c(C(=O)O)[nH]c23)cc1C=O
pIC50 [12]: 7.57

O=C1CCC(N2Cc3ccc(OS(=O)(=O)F)cc3C2=O)C(=O)N1 (stereo unspecified)
half-life [13]: > 145 min | half-life [14]: > 217 min

O=C1CCC(N2Cc3ccc(S(=O)(=O)n4cncn4)cc3C2=O)C(=O)N1 (stereo unspecified)
half-life [15]: < 1 min

COC(=O)c1ccccc1SC1=NS(=O)(=O)c2ccccc21
pEC50 [16]: 6.54
